In ChEMBL document CHEMBL1909046, “DrugMatrix in vitro pharmacology data”:

Legend:
[1] = DRUGMATRIX: GABAA, Muscimol, Central radioligand binding (ligand: [3H] Muscimol); format: cell membranes, Rattus norvegicus, Wistar, Brain, Membrane; settings: Not Active = under 50% inhibition at 10 µM
[2] = target: Beta-1 adrenergic receptor (Homo sapiens, UniProt P08588); assay: DRUGMATRIX: Adrenergic beta1 radioligand binding (ligand: [125I] Cyanopindolol); format: cell membranes, CHO-K1, Membrane; settings: cho-k1; Not Active = under 50% inhibition at 10 µM
Glucocorticoid receptor = target: T1, Glucocorticoid receptor (Homo sapiens, UniProt P04150); settings: hela s3; also: in other assays of this panel Not Active means under 50% inhibition at 10 µM
T1 sequence (P04150 whole entry): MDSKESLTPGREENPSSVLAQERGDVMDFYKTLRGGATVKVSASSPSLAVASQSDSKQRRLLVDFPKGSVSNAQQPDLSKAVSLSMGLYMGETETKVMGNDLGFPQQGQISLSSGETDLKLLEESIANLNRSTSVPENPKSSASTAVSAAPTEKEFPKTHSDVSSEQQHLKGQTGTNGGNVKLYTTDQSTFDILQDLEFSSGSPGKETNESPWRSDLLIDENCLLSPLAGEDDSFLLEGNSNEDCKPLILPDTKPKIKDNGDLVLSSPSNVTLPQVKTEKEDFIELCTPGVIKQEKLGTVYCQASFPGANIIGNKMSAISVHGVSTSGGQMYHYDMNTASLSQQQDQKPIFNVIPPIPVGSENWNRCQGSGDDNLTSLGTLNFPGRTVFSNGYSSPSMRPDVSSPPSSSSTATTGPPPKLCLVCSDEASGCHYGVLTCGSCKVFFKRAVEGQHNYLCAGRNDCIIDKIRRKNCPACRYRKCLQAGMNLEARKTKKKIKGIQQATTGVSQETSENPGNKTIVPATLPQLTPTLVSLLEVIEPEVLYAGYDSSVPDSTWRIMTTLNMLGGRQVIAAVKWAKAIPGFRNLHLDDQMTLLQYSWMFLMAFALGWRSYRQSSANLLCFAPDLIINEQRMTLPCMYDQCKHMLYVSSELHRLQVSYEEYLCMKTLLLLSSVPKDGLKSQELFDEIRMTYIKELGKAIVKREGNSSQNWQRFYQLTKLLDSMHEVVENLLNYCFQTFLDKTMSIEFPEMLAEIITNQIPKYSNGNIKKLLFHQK

Cytochrome P450 2A6 = target: T2, Cytochrome P450 2A6 (Homo sapiens, UniProt P11509); settings: bti-tn-5b1-4; also: in other assays of this panel Not Active means under 50% inhibition at 10 µM
T2 sequence (P11509 whole entry): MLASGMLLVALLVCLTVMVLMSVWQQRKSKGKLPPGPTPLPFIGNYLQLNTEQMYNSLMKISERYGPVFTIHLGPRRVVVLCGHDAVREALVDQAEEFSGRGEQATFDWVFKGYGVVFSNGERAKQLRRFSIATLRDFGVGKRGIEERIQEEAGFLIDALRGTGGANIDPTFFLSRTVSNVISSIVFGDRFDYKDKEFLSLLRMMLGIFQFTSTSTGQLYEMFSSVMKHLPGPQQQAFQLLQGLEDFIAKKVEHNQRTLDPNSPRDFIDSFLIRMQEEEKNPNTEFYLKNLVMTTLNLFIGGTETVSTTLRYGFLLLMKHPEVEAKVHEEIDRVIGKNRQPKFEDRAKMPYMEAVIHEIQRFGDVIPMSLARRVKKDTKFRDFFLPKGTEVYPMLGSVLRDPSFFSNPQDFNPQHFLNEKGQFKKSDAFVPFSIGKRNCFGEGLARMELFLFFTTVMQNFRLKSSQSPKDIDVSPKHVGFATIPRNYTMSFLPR

[3] = target: cGMP-specific 3',5'-cyclic phosphodiesterase (Homo sapiens, UniProt O76074); assay: DRUGMATRIX: Phosphodiesterase PDE5 enzyme inhibition (substrate: [3H]cGMP + cGMP); format: tissue-based, Platelet; settings: platelet; Not Active = under 50% inhibition at 10 µM
[4] = target: Beta-2 adrenergic receptor (Homo sapiens, UniProt P07550); assay: DRUGMATRIX: Adrenergic beta2 radioligand binding (ligand: [3H] CGP-12177); format: cell membranes, CHO, Membrane; settings: cho; Not Active = under 50% inhibition at 10 µM
Melanocortin receptor 4 = Melanocortin receptor 4 (Homo sapiens, UniProt P32245); format: cell membranes, Membrane; settings: hek293; also: in other assays of this panel Not Active means under 50% inhibition at 10 µM
Melanocortin receptor 5 = Melanocortin receptor 5 (Homo sapiens, UniProt P33032); format: cell membranes, HEK293, Membrane; settings: for Ki: read-out: Ki; as to all read-outs here: in other assays of this panel Not Active means under 50% inhibition at 10 µM
[5] = DRUGMATRIX: ATPase, Na+/K+ enzyme inhibition (substrate: ATP); format: tissue-based, Sus scrofa, Heart; settings: Not Active = under 50% inhibition at 10 µM

Beta-1 adrenergic receptor, sequence (P08588 whole entry): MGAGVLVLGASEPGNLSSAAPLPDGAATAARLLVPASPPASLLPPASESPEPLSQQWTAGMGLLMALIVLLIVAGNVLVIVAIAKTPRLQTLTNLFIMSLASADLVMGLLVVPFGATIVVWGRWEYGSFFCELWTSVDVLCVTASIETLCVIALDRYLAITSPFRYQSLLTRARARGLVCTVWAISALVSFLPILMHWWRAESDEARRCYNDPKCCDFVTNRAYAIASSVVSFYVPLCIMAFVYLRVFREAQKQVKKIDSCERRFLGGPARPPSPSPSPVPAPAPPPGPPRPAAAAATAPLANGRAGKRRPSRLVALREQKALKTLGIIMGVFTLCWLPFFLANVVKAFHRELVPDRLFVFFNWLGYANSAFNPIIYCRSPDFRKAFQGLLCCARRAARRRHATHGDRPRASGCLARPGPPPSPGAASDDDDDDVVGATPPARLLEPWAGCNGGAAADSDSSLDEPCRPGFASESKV
Melanocortin receptor 4, sequence (P32245 whole entry): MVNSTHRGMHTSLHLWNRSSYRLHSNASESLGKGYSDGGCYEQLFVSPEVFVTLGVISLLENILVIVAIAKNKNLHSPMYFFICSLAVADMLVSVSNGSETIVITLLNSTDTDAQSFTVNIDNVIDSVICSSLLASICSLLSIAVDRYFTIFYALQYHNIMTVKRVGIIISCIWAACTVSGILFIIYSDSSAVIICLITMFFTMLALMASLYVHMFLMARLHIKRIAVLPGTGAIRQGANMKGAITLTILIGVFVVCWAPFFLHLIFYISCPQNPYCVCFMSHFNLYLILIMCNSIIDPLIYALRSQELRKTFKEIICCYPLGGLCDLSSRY
Melanocortin receptor 5, sequence (P33032 whole entry): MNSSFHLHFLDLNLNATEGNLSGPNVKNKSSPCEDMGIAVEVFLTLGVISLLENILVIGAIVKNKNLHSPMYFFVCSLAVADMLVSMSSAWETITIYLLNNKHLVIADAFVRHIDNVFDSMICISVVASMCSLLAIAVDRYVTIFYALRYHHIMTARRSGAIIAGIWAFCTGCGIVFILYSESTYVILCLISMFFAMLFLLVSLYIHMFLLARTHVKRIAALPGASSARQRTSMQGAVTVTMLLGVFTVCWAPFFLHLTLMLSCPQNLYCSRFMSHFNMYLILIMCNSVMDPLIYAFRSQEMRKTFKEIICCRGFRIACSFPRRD
Beta-2 adrenergic receptor, sequence (P07550 whole entry): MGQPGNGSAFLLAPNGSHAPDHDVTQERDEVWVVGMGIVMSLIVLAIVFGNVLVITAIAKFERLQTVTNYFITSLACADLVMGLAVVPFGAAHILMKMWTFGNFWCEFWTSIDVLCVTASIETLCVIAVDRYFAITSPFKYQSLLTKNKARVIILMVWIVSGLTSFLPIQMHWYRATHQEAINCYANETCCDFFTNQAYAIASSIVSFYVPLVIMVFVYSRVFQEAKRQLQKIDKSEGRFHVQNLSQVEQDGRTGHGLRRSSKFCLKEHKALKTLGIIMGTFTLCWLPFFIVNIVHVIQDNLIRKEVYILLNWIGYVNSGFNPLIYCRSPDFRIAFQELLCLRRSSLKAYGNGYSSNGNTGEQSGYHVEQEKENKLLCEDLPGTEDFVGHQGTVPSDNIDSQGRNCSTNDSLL

Compound | IC50 [1] | Ki [1] | IC50 [2] | IC50 (Glucocorticoid receptor) | IC50 (Cytochrome P450 2A6) | Ki (Cytochrome P450 2A6) | IC50 [3] | IC50 [4] | IC50 (Melanocortin receptor 4) | IC50 (Melanocortin receptor 5; hek293) | IC50 [5] | Ki [5] | IC50 (Melanocortin receptor 5; read-out: IC50) | Ki (Melanocortin receptor 5)
CCO [ALCOHOL] | Not Active | Not Active | Not Active | Not Active | Not Active | Not Active | Not Active | Not Active | Not Active | Not Active | Not Active | Not Active |  | 
CC(N)Cc1c[nH]c2ccc(OCc3cccs3)cc12 (stereo not given) [BW-723C86] | Not Active | Not Active | Not Active | Not Active | Not Active | Not Active | Not Active | Not Active | Not Active | Not Active | Not Active | Not Active |  | 
c1ccc2sc(SSc3nc4ccccc4s3)nc2c1 [BENZOTHIAZYL DISULFIDE] | Not Active | Not Active | Not Active | Not Active | Not Active | Not Active | Not Active | Not Active | Not Active |  | Not Active | Not Active | 3.9 µM | 3.7 µM
CC(C)Cc1ccc([C@H](C)C(=O)O)cc1 [DEXIBUPROFEN] | Not Active | Not Active | Not Active | Not Active | Not Active | Not Active | Not Active | Not Active | Not Active | Not Active | Not Active | Not Active |  | 
Nc1nc(N)c2nc(CNc3ccc(C(=O)N[C@@H](CCC(=O)O)C(=O)O)cc3)cnc2n1 [AMINOPTERIN] | Not Active | Not Active | Not Active | Not Active | Not Active | Not Active | Not Active | Not Active | Not Active | Not Active | Not Active | Not Active |  | 
NC(=O)NC(=O)Cc1ccccc1 [PHENACEMIDE] | Not Active | Not Active | Not Active | Not Active | Not Active | Not Active | Not Active | Not Active | Not Active | Not Active | Not Active | Not Active |  | 
O=C1c2ccccc2C(=O)C1c1ccccc1 [PHENINDIONE] | Not Active | Not Active | Not Active | Not Active | Not Active | Not Active | Not Active | Not Active | Not Active | Not Active | Not Active | Not Active |  | 
OC[C@H]1O[C@@H]2O[C@H]3[C@H](O)[C@@H](O)[C@@H](O[C@H]4[C@H](O)[C@@H](O)[C@@H](O[C@H]5[C@H](O)[C@@H](O)[C@@H](O[C@H]6[C@H](O)[C@@H](O)[C@@H](O[C@H]7[C@H](O)[C@@H](O)[C@@H](O[C@H]8[C@H](O)[C@@H](O)[C@@H](O[C@H]1[C@H](O)[C@H]2O)O[C@@H]8CO)O[C@@H]7CO)O[C@@H]6CO)O[C@@H]5CO)O[C@@H]4CO)O[C@@H]3CO [BETADEX] | Not Active | Not Active | Not Active | Not Active | Not Active | Not Active | Not Active | Not Active | Not Active | Not Active | Not Active | Not Active |  | 
CC1(COc2ccc(CC3SC(=O)NC3=O)cc2)CCCCC1 (stereo not given) [CIGLITAZONE] | Not Active | Not Active | Not Active | Not Active | Not Active | Not Active | Not Active | Not Active | Not Active |  | Not Active | Not Active | 28.6 µM | 26.8 µM
